Measured values published in patent publication US4451448A, “1-Substituted tricyclic quinazolinones useful as tranquilizers” (Sandoz, Inc., priority 1982, dated 1984).

Tested on: isolated calf brain benzodiazepine receptors
Assay: Flunitrazepam Receptor Binding Assay (FBA TEST No. 1), displacement of 3H-flunitrazepam
Conditions: compound at final concentration of 1×10^-6 M; calf caudate tissue; 1 µM

Row | SMILES | percent specifically bound 3H-flunitrazepam compared to control
1 | O=c1c2cc(Cl)ccc2nc2n1CCN2C1CCCC1 [Example 2, 7-chloro-1-cyclopentyl-2,3-dihydro-imidazo[2,1-b]quinazolin-5(1H)-one] | 19 % of control
2 | C=CCN1CCn2c1nc1ccc(Cl)cc1c2=O [Example 1, 1-allyl-7-chloro-2,3-dihydro-imidazo[2,1-b]quinazolin-5(1H)-one] | 13 % of control
